Test results reported in patent US20250361227A1, “INHIBITORS OF FLI1 AND ERG” (UNIVERSITY OF VIRGINIA PATENT FOUNDATION, priority 2022, published 2025).
Where two headings read alike, the source gives them in different places.

How the values were obtained:
[1] = molecular target: T1, ERG auto-inhibited construct (ERGi, 272-388) (Homo sapiens, UniProt P11308); experiment: ERGi-DNA fluorescence polarization assay; assay type: binding
T1 construct: made in house
T1 sequence (P11308 272-388 isoform P11308-1): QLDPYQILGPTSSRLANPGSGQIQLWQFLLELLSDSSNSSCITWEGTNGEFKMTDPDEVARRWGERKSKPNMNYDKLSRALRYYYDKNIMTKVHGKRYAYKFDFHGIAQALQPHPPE
From the text: (§1) The constructs of ERG which retain full auto-inhibition were previously delineated (17). Fluorescence polarization-based assays for DNA binding were then developed, which were used for screening. In addition to the auto-inhibited form of ERG, it was important to also have an assay using its Ets domain, i.e., the uninhibited form of the protein, to compare action of compounds. Compounds which are active against the auto-inhibited form of the protein but have little or no effect on the uninhibited form were sought, indicating their binding is mediated by the non-conserved auto-inhibitory modules rather than the highly conserved Ets domain. […] Fragment screening is an alternative approach that has gained a great deal of favor in the pharma industry recently that employs relatively small molecules (22). […] The auto-inhibited construct was screened first with a dose dependent screen of actives with ERGi using fluorescein- and Texas Red-DNA and then the positive hits were counter-screened with the ERG Ets domain, specifically a screen of actives with ERGu, the latter screen serving to remove compounds which bind to the conserved Ets domain or to DNA, which left 26 compounds which inhibit the auto-inhibited construct of ERG binding to DNA but not the uninhibited ERG (the Ets domain) binding to DNA. ERGi is the auto-inhibited construct of ERG (272-388) and ERGu is the uninhibited DNA binding domain construct of ERG (289-378). […] The IC50 of the validated hits was 0.6-7 mM. […] Importantly, chemical shift changes upon compound addition are observed in the ^15N-^1H HSQC NMR spectra of ERG for amino acids located in the auto-inhibitory modules of ERG, indicating they do interact with these regions of the protein. It is critical to also develop assays for other ETS family members to assess the specificity of action of the compounds identified in the screen, so auto-inhibited constructs were expressed and assays were developed for five other ETS family members and assays for additional members of the family were also developed.
(§2) Using a standard medicinal chemistry approach, further optimization of the fragment hits were pursued. The specificity of parent fragments and their optimized derivatives with 5 additional Ets proteins which are representatives of 5 additional sub-families, were evaluated, as shown in Table 2. […] NA in Table 2 represents no activity up to the 2000 μM maximum concentration. >number in Table 2 represents some activity at highest concentrations so data fit with a lower bound to obtain an estimate of IC50.

[2] = molecular target: T2, ERG isolated Ets domain (ERGu, 289-378) (Homo sapiens, UniProt P11308); experiment: Fluorescence polarization DNA binding assay, uninhibited ERG; settings: FP DNA binding, NA = no activity up to 2000 μM, >number = estimate from fit with lower bound
T2 construct: made in house
T2 sequence (P11308 289-378 isoform P11308-1): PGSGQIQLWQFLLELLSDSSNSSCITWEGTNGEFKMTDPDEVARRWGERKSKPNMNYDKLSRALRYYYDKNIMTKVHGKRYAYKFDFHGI
From the text: as §1, §2

[3] = molecular target: T3, ELK1 (Homo sapiens, UniProt P19419); experiment: Fluorescence polarization DNA binding assay, auto-inhibited ELK1; settings: auto-inhibited construct; NA = no activity up to 2000 μM; >number = estimate from fit with lower bound
T3 sequence (P19419 1-428): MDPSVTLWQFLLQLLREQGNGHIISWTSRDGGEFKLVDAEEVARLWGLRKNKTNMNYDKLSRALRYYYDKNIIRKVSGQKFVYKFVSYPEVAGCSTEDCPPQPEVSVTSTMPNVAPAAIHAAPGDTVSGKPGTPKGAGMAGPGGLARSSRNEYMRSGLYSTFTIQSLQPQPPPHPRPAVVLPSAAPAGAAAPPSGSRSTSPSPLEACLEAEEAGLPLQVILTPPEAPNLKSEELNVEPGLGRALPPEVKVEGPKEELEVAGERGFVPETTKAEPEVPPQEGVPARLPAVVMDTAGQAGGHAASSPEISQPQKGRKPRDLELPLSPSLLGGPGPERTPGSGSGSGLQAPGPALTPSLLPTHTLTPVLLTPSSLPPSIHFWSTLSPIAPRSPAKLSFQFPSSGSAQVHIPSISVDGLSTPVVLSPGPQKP
From the text: as §1, §2

[4] = molecular target: T4, ELF3 (Homo sapiens, UniProt P78545); experiment: Fluorescence polarization DNA binding assay, auto-inhibited ELF3; settings: auto-inhibited construct; NA = no activity up to 2000 μM; >number = estimate from fit with lower bound
T4 sequence (P78545 1-371): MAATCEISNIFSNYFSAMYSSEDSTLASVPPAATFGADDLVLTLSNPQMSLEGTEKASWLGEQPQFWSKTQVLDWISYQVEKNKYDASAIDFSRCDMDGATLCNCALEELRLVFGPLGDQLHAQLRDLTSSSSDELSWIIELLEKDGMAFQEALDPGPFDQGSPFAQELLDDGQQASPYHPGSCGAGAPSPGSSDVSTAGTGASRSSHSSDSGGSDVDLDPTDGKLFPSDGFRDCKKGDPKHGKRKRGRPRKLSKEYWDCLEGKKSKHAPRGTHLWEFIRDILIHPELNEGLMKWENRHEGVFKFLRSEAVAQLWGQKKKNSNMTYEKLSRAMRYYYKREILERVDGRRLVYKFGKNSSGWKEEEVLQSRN
From the text: as §1, §2

[5] = molecular target: T5, Ets1 (Homo sapiens, UniProt P14921); experiment: Fluorescence polarization DNA binding assay, auto-inhibited Ets-1; settings: auto-inhibited construct; NA = no activity up to 2000 μM; >number = estimate from fit with lower bound
T5 sequence (P14921 1-441): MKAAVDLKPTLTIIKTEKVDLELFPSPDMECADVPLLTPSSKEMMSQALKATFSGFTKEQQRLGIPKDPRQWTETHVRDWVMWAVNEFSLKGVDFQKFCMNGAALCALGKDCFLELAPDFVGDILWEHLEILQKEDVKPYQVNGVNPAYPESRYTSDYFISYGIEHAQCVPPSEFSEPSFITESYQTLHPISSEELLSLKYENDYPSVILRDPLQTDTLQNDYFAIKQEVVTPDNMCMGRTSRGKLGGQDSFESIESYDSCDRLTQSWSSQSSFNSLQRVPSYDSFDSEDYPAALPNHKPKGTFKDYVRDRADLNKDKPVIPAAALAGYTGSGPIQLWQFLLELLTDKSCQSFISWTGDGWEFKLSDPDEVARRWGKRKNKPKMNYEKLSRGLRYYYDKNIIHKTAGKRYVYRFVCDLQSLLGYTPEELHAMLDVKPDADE
From the text: as §1, §2

[6] = molecular target: Spi1 (PU.1) (Homo sapiens, UniProt P17947); experiment: Fluorescence polarization DNA binding assay, auto-inhibited PU.1; settings: auto-inhibited construct; NA = no activity up to 2000 μM; >number = estimate from fit with lower bound
From the text: as §1, §2

[7] = molecular target: T6, ETV6 (TEL) (Homo sapiens, UniProt P41212); experiment: Fluorescence polarization DNA binding assay, auto-inhibited ETV6; settings: auto-inhibited construct; NA = no activity up to 2000 μM; >number = estimate from fit with lower bound
T6 sequence (P41212 1-452): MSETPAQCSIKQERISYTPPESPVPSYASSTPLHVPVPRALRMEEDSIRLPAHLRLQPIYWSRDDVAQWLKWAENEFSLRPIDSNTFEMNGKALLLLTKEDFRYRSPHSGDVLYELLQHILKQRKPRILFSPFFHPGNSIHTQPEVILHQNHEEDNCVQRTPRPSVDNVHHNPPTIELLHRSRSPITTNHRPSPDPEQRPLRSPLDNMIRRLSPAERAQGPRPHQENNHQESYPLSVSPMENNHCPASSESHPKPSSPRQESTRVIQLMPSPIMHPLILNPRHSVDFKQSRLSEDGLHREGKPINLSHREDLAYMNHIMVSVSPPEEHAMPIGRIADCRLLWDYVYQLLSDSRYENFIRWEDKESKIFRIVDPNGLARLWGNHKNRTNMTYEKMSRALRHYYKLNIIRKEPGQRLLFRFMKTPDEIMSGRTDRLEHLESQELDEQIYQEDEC
From the text: as §1, §2

[8] = molecular target: DNA; settings: ITC, ERG construct binding to DNA; ±SE in cell beside; cited from earlier work
[9] = optimized fragment analogs, values in text, read-out: IC50
[10] = FP DNA binding, maximum concentration 2000 μM, read-out: IC50 ERG Auto-inhibited construct

COc1cc(OCC(=O)Nc2cccc(O)c2)ccc1C [KK-22-93]
IC50 [1, 9]: 88 µM | IC50 [2]: > 3000 µM | IC50 [3]: > 4750 µM | IC50 [4]: > 2000 µM | IC50 [5]: > 3600 µM | IC50 [6]: > 2000 µM | IC50 [7]: > 2000 µM

Cc1ccc(-c2nc3ccccc3o2)cc1C [KK-19-109]
IC50 [1, 9]: 63 µM

Cc1ccc(OCC(=O)Nc2cccc(O)c2)cc1 [Compound 6H6]
IC50 [1, 10]: 588 µM | IC50 [2]: > 2000 µM | IC50 [3]: > 4500 µM | IC50 [4]: > 2000 µM | IC50 [5]: > 4000 µM | IC50 [6]: > 2000 µM | IC50 [7]: > 2000 µM

COc1cccc2cc(C(C)=O)oc12 [Compound 9F1]
IC50 [2]: > 2000 µM | IC50 [3]: > 2000 µM | IC50 [4]: > 2000 µM | IC50 [5]: > 2000 µM | IC50 [6]: > 2000 µM | IC50 [7]: > 2000 µM

COc1ccc(-c2c(C(C)=O)oc3c(OC)cccc23)cc1 [KK-16-69]
IC50 [1, 9]: 99 µM | IC50 [2]: > 2000 µM | IC50 [3]: > 2000 µM | IC50 [4]: > 2000 µM | IC50 [5]: > 2000 µM | IC50 [6]: > 5700 µM | IC50 [7]: > 7800 µM

CCNc1cc(-c2nc3ccccc3o2)ccc1C [KK-23-07]
IC50 [1, 10]: 837 µM | IC50 [2]: > 2000 µM | IC50 [3]: > 2500 µM | IC50 [4]: 1740 µM | IC50 [5]: > 2600 µM | IC50 [6]: > 3300 µM | IC50 [7]: > 4400 µM

B1: 289-412: ERG truncation construct, residues 289-412 (protein, UniProt P11308 289-412, looked up, fragment)
chain: QLDPYQILGPTSSRLANPGSGQIQLWQFLLELLSDSSNSSCITWEGTNGEFKMTDPDEVARRWGERKSKPNMNYDKLSRALRYYYDKNIMTKVHGKRYAYKFDFHGIAQALQPHPPESSLYKYP
Kd [8]: 0.051 µM

B2: 272-378: ERG truncation construct, residues 272-378 (protein, UniProt P11308 272-378, looked up, fragment)
chain: AAQPSPSTVPKTEDQRPQLDPYQILGPTSSRLANPGSGQIQLWQFLLELLSDSSNSSCITWEGTNGEFKMTDPDEVARRWGERKSKPNMNYDKLSRALRYYYDKNIM
Kd [8]: 0.033 µM

B3: 289-388: ERG truncation construct, residues 289-388 (protein, UniProt P11308 289-388, looked up, fragment)
chain: QLDPYQILGPTSSRLANPGSGQIQLWQFLLELLSDSSNSSCITWEGTNGEFKMTDPDEVARRWGERKSKPNMNYDKLSRALRYYYDKNIMTKVHGKRYAY
Kd [8]: 0.041 µM

B4: 289-378: the uninhibited DNA binding domain construct of ERG (289-378) (protein, UniProt P11308 289-378, looked up, fragment)
chain: QLDPYQILGPTSSRLANPGSGQIQLWQFLLELLSDSSNSSCITWEGTNGEFKMTDPDEVARRWGERKSKPNMNYDKLSRALRYYYDKNIM
Kd [8]: 0.037 µM

B5: 1-462: ERG construct, residues 1-462 (protein, UniProt P11308 1-462, looked up, fragment)
chain: MASTIKEALSVVSEDQSLFECAYGTPHLAKTEMTASSSSDYGQTSKMSPRVPQQDWLSQPPARVTIKMECNPSQVNGSRNSPDECSVAKGGKMVGSPDTVGMNYGSYMEEKHMPPPNMTTNERRVIVPADPTLWSTDHVRQWLEWAVKEYGLPDVNILLFQNIDGKELCKMTKDDFQRLTPSYNADILLSHLHYLRETPLPHLTSDDVDKALQNSPRLMHARNTGGAAFIFPNTSVYPEATQRITTRPDLPYEPPRRSAWTGHGHPTPQSKAAQPSPSTVPKTEDQRPQLDPYQILGPTSSRLANPGSGQIQLWQFLLELLSDSSNSSCITWEGTNGEFKMTDPDEVARRWGERKSKPNMNYDKLSRALRYYYDKNIMTKVHGKRYAYKFDFHGIAQALQPHPPESSLYKYPSDLPYMGSYHAHPQKMNFVAPHPPALPVTSSSFFAAPNPYWNSPTGGIYP
Kd [8]: 0.121 µM

B6: 210-462: ERG truncation construct, residues 210-462 (protein, UniProt P11308 210-462, looked up, fragment)
chain: KALQNSPRLMHARNTGGAAFIFPNTSVYPEATQRITTRPDLPYEPPRRSAWTGHGHPTPQSKAAQPSPSTVPKTEDQRPQLDPYQILGPTSSRLANPGSGQIQLWQFLLELLSDSSNSSCITWEGTNGEFKMTDPDEVARRWGERKSKPNMNYDKLSRALRYYYDKNIMTKVHGKRYAYKFDFHGIAQALQPHPPESSLYKYPSDLPYMGSYHAHPQKMNFVAPHPPALPVTSSSFFAAPNPYWNSPTGGIYP
Kd [8]: 0.104 µM

B7: 272-412: ERG truncation construct, residues 272-412 (protein, UniProt P11308 272-412, looked up, fragment)
chain: AAQPSPSTVPKTEDQRPQLDPYQILGPTSSRLANPGSGQIQLWQFLLELLSDSSNSSCITWEGTNGEFKMTDPDEVARRWGERKSKPNMNYDKLSRALRYYYDKNIMTKVHGKRYAYKFDFHGIAQALQPHPPESSLYKYP
Kd [8]: 0.101 µM

B8: 272-388: the auto-inhibited construct of ERG (272-388) (protein, UniProt P11308 272-388, looked up, fragment)
chain: AAQPSPSTVPKTEDQRPQLDPYQILGPTSSRLANPGSGQIQLWQFLLELLSDSSNSSCITWEGTNGEFKMTDPDEVARRWGERKSKPNMNYDKLSRALRYYYDKNIMTKVHGKRYAY
Kd [8]: 0.176 µM
